Earlier results, collected in US11517522B2, “Aprepitant ready-to-use injection emulsion compositions” (priority 2020, dated 2022).

Key:
[1] = given orally; commercial nanoparticulate composition (Emend)
[2] = IV infusion
[3] = test system: acute and delayed chemotherapy-induced nausea and vomiting; details: versus aprepitant

Row | SMILES | solubility in acetonitrile (acetonitrile) | solubility in ethanol (ethanol) | solubility in isopropyl acetate (isopropyl acetate) | solubility in water (water) | bioavailability [1] | time for conversion to aprepitant [2] | comparison with aprepitant in prevention and control of acute and delayed chemotherapy-induced nausea and vomiting [3]
1 | C[C@@H](O[C@H]1OCCN(Cc2n[nH]c(=O)[nH]2)[C@H]1c1ccc(F)cc1)c1cc(C(F)(F)F)cc(C(F)(F)F)c1 [Aprepitant, 5-([(2R, 3S)-2-((R)-1-[3,5-bis (trifluoromethyl)phenyl]ethoxy)-3-(4-fluoro-phenyl)morpholino]methyl)-1H-1,2,4-triazol-3(2H)-one] | slightly soluble | sparingly soluble | sparingly soluble | practically insoluble | 60-65% |  | 
2 | C[C@@H](O[C@H]1OCCN(Cc2nc(O)n(P(=O)(O)O)n2)[C@H]1c1ccc(F)cc1)c1cc(C(F)(F)F)cc(C(F)(F)F)c1 [Fosaprepitant, fosaprepitant dimeglumine] |  |  |  |  |  | less than 30 minutes | non-inferiority and bioequivalency
